Reference: US8236761B2, “C-Met receptor regulation by angiotensin IV (AT4) receptor ligands” (Washington State University Research Foundation, priority 2006, dated 2012)
Non-standard residues stand in square brackets, D forms with d. No end group written: not given here. Nle = CCCC[C@H](N)C(=O)O

Experiments:
[1] = tested on: c-Met receptor; test: Cross-linking of 125I-COMPOUND 2 or 125I-HGF to HEK293 cell membranes with unlabeled competitor; type: binding, human; details: 125I-HGF cross-linked to HEK293 cell membranes, FIG. 3B
Description: FIG. 3C: ^125I-Norleual was bound to HEK membranes in the presence or absence of 1.5 nM HGF (n=8) or 1 μM Norleual (n=6). Total binding is reported as percent control (n=10), (*p<0.001). Error bars indicate±SD. […] Error bars indicate SD and data points were performed in duplicate.
Briefly, COMPOUND 2 was iodinated with […] and bound and cross-linked to HEK cell membranes with or without 1 nM COMPOUND 2 or 1 nM hepatocyte growth factor. Following solubilization and separation of free label by molecular sieving, total radioactive counts were determined. The ability of the ligand COMPOUND 2 to compete with hepatocyte growth factor binding to the c-Met receptor was also tested using mouse liver plasma membranes and intact HEK293 cells. Briefly, mouse liver was homogenized and incubated with ^125I-HGF with various concentrations of HGF or COMPOUND 2. Membranes were pelleted and unbound label was removed by washing, and total radioactive counts were determined. Next, HEK293 cell membranes were cross-linked with ^125I-HGF with unlabeled HGF or COMPOUND 2.

[2] = tested on: Erk1/2, Akt; test: Erk1/2 and Akt phosphorylation in HGF-treated B16-F10 cells (scratch wound assay); type: cell-based, murine
Description: Immunoprecipitation and Western blotting. Cells were serum starved for two hours in DMEM before treatment. Cells were harvested using RIPA lysis buffer (Upstate Biotechnol. Inc., Lake Placid, N.Y.) with phosphatase inhibitor cocktails 1 and 2 (Sigma, St Louis, Mo., USA). Protein concentration was determined using the BCA assay (Pierce, Rockford, Ill., USA). Lysates were incubated with antibody overnight at 4° C. Immunoprecipitation controls received mouse non-specific Ig (Upstate). Proteins were captured with protein-A agarose (Upstate) and were washed with PBS. Proteins were resolved using SDS-PAGE electrophoresis (Criterion, BioRad, Hercules, Calif., USA), transferred to nitrocellulose, and incubated with appropriate antibodies. Proteins were visualized using the Supersignal West Pico Chemiluminescent Substrate system (Pierce). The film images were digitized and analyzed using TotalLab® software (AmershamPharmacia/GE HealthCare, Piscataway, N.J.).
In addition, molecules associated with proliferation and migration signal transduction in B16-F10 melanoma cells were investigated in the scratch wound assay. HGF alone promoted enhanced phosphorylation of the signal transduction molecules Erk1/2, an effect that was attenuated by the presence of Norleual (FIG. 11B).

[3] = tested on: B16-F0 murine melanoma; test: Primary tumor melanoma cancer model; type: in vivo, C57BL/6 mice; details: male C57 mice, Elvax pellet intramuscular, 21 μg/kg/day
[4] = tested on: +SA WAZ-2T mouse mammary carcinoma cells; test: Orthotopic +SA WAZ-2T mammary carcinoma model; type: in vivo, Balb/c mice
Description: This Example describes Norleaul effects in a mouse model of breast cancer in which animals were orthotopically injected with +SA WAZ-2T mouse mammary carcinoma cells (5×10^5) into the mammary fat pad of 11-week old female Balb/c mice. The +SA cell line was chosen due to its aggressive nature and ability to form highly vascularized tumors with 100% incidence per injection (Danielson et al., 1986). NORLEUAL (SEQ ID NO:43) was delivered via Elvax slow release pellets at doses of 0.3 mg/pellet, 0.03 mg/pellet, and 0.003 mg/pellet, implanted into the mammary glands immediately prior to tumor cell injection. These pellets provided an estimated continuous release of NORLEUAL at doses equivalent to 37.5 μg/kg/day, 3.75 μg/kg/day, and 0.375 μg/kg/day, respectively (based on in vitro release assays of pellets, data not shown). […] Tumor growth was monitored every 2-3 days, based on caliper measurements of the two longest diameters and calculating tumor volume.

[5] = Chronic treatment: body weight, DXA body composition and pathology; type: in vivo, C57BL/6 mice
Description: Twenty-four five-week old C57BL/6 male mice were equally and randomly assigned to two groups. One group was assigned as control and the other treated. Treated mice were administered intermuscular (IM) injections of Norleual at 21 μg/kg/day, (40 μl injectable volume) every 48 hours for the duration of one hundred and one days. Injection sites were alternated between left and right gluteus medius. BD Ultra-Fine 3/10 cc insulin syringes were used as delivery apparatus. Mice were housed two per cage and had unlimited access to food and water. Mice were monitored daily for signs of morbidity. Mice were also weighed on a weekly basis. C57/BL6 mice were treated either with vehicle control or with Norleual chronically for 101 days.
To assess body composition of the mice, the Comparative Orthopedic Research Laboratory at the Washington State University Veterinary School was utilized. A Hologic QDR4500A fan beam dual-energy X-ray absorptiometer (DXA, Hologic Inc., Bedford, Mass.) was used to assess the lean body mass (muscle), fat, and bone composition of each mouse on day one hundred one of the experiment. Mice were sacrificed and DXA scans were performed. Due to the volume limitations of the DXA instrument and to permit time for gross pathology, half of the mice were sacrificed and analyzed on day 101. The remaining mice were sacrificed and analyzed 22 hours later. Control and treated mice were split evenly among the two sacrifice episodes. Data were collected and the control group was compared to the Norleual treated group by two-tailed student's t-tests using InStat software (GraphPad, San Diego, Calif.). Figures were created using GraphPad Prism software.
Gross pathology and microscopic pathological evaluation on autopsy tissue were performed in blinded fashion on animals following sacrifice, with attention to multiple organs.

[6] = target: c-Met (Homo sapiens, UniProt P08581); test: Tyrosine kinase receptor protein array in HUVECs; type: cell-based; parameters: endogenous in cells; host or cells: HUVEC; details: HUVECs treated for 5 minutes
c-Met, sequence (P08581 25-1390): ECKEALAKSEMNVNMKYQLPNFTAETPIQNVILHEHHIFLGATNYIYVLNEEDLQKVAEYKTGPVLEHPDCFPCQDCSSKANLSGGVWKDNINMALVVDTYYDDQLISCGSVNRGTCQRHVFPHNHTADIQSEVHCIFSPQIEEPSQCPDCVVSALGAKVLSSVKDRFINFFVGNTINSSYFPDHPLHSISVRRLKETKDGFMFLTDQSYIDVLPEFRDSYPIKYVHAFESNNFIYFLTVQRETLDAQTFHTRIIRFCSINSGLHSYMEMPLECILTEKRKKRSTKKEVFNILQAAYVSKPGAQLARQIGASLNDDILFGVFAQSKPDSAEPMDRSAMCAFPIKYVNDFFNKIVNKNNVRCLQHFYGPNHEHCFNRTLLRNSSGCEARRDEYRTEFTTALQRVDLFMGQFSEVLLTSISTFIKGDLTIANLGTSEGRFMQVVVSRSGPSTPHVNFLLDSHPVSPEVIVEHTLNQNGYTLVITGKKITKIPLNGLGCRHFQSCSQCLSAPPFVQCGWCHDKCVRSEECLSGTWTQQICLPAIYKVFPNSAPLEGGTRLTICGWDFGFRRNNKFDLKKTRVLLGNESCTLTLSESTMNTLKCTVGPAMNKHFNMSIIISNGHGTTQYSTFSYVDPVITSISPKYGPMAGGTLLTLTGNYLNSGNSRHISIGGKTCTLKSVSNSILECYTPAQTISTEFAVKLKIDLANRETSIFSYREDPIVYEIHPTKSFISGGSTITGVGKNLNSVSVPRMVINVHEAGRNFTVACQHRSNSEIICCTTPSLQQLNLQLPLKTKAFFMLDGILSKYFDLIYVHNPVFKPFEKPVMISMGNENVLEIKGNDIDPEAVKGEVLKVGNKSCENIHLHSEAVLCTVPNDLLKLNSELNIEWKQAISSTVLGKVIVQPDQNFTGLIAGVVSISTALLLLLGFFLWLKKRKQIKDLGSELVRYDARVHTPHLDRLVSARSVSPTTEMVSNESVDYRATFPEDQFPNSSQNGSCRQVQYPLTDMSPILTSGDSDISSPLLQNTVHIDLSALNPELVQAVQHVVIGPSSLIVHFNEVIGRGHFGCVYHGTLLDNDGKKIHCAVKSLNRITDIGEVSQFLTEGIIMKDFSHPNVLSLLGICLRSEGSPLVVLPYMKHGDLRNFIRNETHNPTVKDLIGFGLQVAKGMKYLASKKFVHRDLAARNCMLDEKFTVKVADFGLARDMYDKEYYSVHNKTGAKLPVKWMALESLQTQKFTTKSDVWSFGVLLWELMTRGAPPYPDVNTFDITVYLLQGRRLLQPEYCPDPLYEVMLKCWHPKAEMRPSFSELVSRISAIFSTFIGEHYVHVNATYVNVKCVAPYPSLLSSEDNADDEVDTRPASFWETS
Description: Screening of a ligand for its ability to inhibit c-Met receptor phosphorylation was tested by tyrosine kinase receptor protein array. Briefly, human umbilical vein endothelial cells (HUVECs) grown to confluence were treated for 5 minutes with COMPOUND 2 (SEQ ID NO:43). Cells were then lysed and total protein collected.

Nle-Tyr-Leu-ψ-His-Pro-Phe ([Nle]YLHPF; also: reduced peptide bond psi(CH2NH2) between Leu and His) [Norleual]
Mode of inhibition of HGF binding to the c-Met receptor [1]: competitive inhibitor of HGF binding to the c-Met receptor
HGF-enhanced phosphorylation of Erk1/2 [2]: attenuated
HGF-induced Akt phosphorylation [2]: did not affect
Primary B16-F0 murine melanoma growth [3]: inhibited
Tumor volume ([4]; 0.003 mg/pellet, n=6): 112.7±61 mm^3
Tumor mean vessel count/high power field (Factor VIII staining) ([4]; 0.3 mg/pellet, n=5, control 27.8±3): 3.0±0.9
Delay in onset of palpable tumor mass ([4]; 0.3 mg/pellet, n=6, control 7 day lag): up to 21 days
Inhibition of tumor volume compared to control ([4]; most effective dose, 0.3 mg/pellet): 97%
Visible vascularization of tumors removed at conclusion ([4]; treated tumors): total lack of visible vascularization
Visual inspection of animals versus control ([5]; 101 days treatment): visibly less bulky
Scale measured weights versus control mice ([5]; IM 21 μg/kg/day every 48 hours, day 101, p=0.0130): significantly lower
Distribution of lipid vacuoles in the liver relative to control animals ([5]; autopsy tissue, blinded pathology): marked reduction
DXA measured bone mineral density versus control mice ([5]; day 101): not statistically significant
Percent fat versus control mice (DXA) ([5]; day 101, p<0.0001): significantly lower
DXA measured mass versus control mice ([5]; day 101, p=0.0146): significantly lower
DXA measured area versus control mice ([5]; day 101, p=0.023): significantly lower
Lean body mass+bone mineral content (BMC) versus control mice (DXA) ([5]; day 101, p=0.18): not significantly different
c-Met phosphorylation in receptor protein array [6]: inhibited
